Results reported in US7812045B2, “Antifungal triazole derivatives” (Daewoong Pharmaceutical Co., Ltd., priority 2005, dated 2010).
Converted amounts (≈) assume the structure as drawn. Read-outs that look alike come from different tables or passages of the source.

Legend:
HepG2 cells [1] = test system: HepG2 cells
Protocol: HepG2 cells were aliquoted at a population of 5×10^4 counts per well of 96-well plates and grown at 37° C. in a 5% CO2 incubator for 1 day. The culture medium in each well was replaced with a fresh medium containing the compounds of interest, followed by overnight incubation in the incubator. Following the addition of 100 μl of a 100 μg/ml Neutral red solution into each well, the cells were stained for 3 hours in the incubator and fixed in 1% formaldehyde with 1% CaCl2. The cells were destained in 1% glacial acetic acid plus 50% ethanol, followed by measurement for absorbance at 540 nm. Cytotoxicity was expressed as percentages of optical density relative to that of the control, treated with none of the compounds.

[2] = test system: Aspergillus flavus ATCC MYA-1004; assay: In vitro assay for antifungal activity (MIC90); format: cell-based; conditions: RPMI 1640, growth read after 48 hours, duplicate; for MIC90: read-out: MIC90 (concentration at which 90% of the fungi were inhibited compared to the negative control)
Protocol: (§1) Fungal strains to be tested were inoculated onto Sabouraud dextrose agar, YM agar, and potato dextrose agar and cultured at 35° C. for two to three days. Individual single colonies of the yeast fungi selected out of the cultured strains were suspended in 5 ml of 0.85% sterile saline, followed by correction to adjust the absorbance thereof at 530 nm to 0.108. The suspensions were diluted serially by 1:50 and then 1:20 in RPMI 1640 media to prepare liquid inocula ranging in cell count from 1.0×10^3 to 5.0×10^3 CFU/ml. As for filamentous fungi, their spores were suspended in 0.85% sterile saline and the suspensions were corrected with sterile saline to show optical transmittance at 530 nm of 80 to 82%. A dilution of 1:50 was made with RPMI 1640 media to prepare liquid inocula having cell counts from […] to 5×10^4 CFU/ml.
(§2) Antifungal samples were prepared by diluting the compounds of the present inventions in RPMI 1640 media to serial concentrations from 0.0625 to 32 μg/ml. As a vehicle, DMSO was contained in a final concentration of 1% (V/V) in the antifungal samples. 0.1 ml of each of the dilutions in series was added to equal volume of each of the fungal inocula.

[3] = test system: Aspergillus fumigatus ATCC MYA-1163; assay: In vitro assay for antifungal activity (MIC90); format: cell-based; conditions: RPMI 1640, growth read after 48 hours, duplicate; for MIC90: read-out: MIC90 (concentration at which 90% of the fungi were inhibited compared to the negative control)
Protocol: as §1, §2

[4] = test system: Aspergillus niger ATCC 9142; assay: In vitro assay for antifungal activity (MIC90); format: cell-based; conditions: duplicate; for MIC90: ATCC9142, RPMI 1640, growth read after 48 hours, read-out: MIC90 (concentration at which 90% of the fungi were inhibited compared to the negative control)
Protocol: as §1, §2

[5] = test system: Aspergillus terreus ATCC 28301; assay: In vitro assay for antifungal activity (MIC90); format: cell-based; conditions: duplicate; for MIC90: ATCC28301, RPMI 1640, growth read after 48 hours, read-out: MIC90 (concentration at which 90% of the fungi were inhibited compared to the negative control)
Protocol: as §1, §2

[6] = test system: Candida albicans ATCC 32033; assay: In vitro assay for antifungal activity (MIC90); format: cell-based; conditions: duplicate; for MIC90: ATCC32033, RPMI 1640, growth read after 24 hours, read-out: MIC90 (concentration at which 90% of the fungi were inhibited compared to the negative control)
Protocol: as §1, §2

[7] = test system: Candida glabrata ATCC 34138; assay: In vitro assay for antifungal activity (MIC90); format: cell-based; conditions: duplicate; for MIC90: Nakaseomyces glabratus, ATCC34138, RPMI 1640, growth read after 24 hours, read-out: MIC90 (concentration at which 90% of the fungi were inhibited compared to the negative control)
Protocol: as §1, §2

Candida krusei ATCC 6258 = assay: In vitro assay for antifungal activity (MIC90); format: cell-based; conditions: duplicate; for MIC90: Pichia kudriavzevii, ATCC6258, RPMI 1640, growth read after 24 hours, read-out: MIC90 (concentration at which 90% of the fungi were inhibited compared to the negative control)
Protocol: as §1, §2

[8] = test system: Cryptococcus neoformans ATCC 4065; assay: In vitro assay for antifungal activity (MIC90); format: cell-based; conditions: for MIC90: ATCC4065, RPMI 1640, duplicate, read-out: MIC90 (concentration at which 90% of the fungi were inhibited compared to the negative control)
Protocol: as §1, §2

[9] = test system: Candida albicans (ATCC 36082); assay: In vivo assay for antifungal activity (survival of infected mice); conditions: ICR mice infected i.v. with Candida albicans ATCC 36082; for % Survival on Day 21: 20 mg/kg orally once a day for seven days (day 0 to day 6), groups of 10
Protocol: Candida albicans (ATCC 36082) was grown in YM broth on a rotary shaker (200 rpm, 26° C.) for about 12 hours to a concentration of 2.5×10^7 CFU/ml and used to infect ICR mice at a dose of 0.2 ml/head via caudal veins. Suspensions or solutions of the azole compounds in a 25% beta-hydroxypropyl methylcellulose base were orally administered at a dose of 20 mg/kg to respective infected ICR mice in groups of 10, the condition and body weights of the mice were monitored, and autopsies were finally conducted. For a negative control, the vehicle alone was used while fluconazole was administered to a positive control. The mice were inoculated once with the fungal preparation on the day of commencement of the administration. The test materials of interest and the positive control material were orally administered to the inoculated mice once a day for seven days from day 0 to day 6, with the first oral administration made five hours after the fungal inoculation (day 0). The periods of time for which the infected mice lived were counted.
The number of mice which survived the fungal infection for 21 days following the inoculation was represented as % survival for each test group, and the results are given in Table 11, below. All members of the negative control were dead 8 days after the fungal infection, while all of the groups administered with Compound 50 were dead 18 days after the fungal infection.

Assay for acute toxicity = format: in vivo; conditions: mice; oral administration, to a dose of 1000 mg/kg; observed for two weeks; suspension in 25% beta-hydroxypropyl methylcellulose base or polyethylene glycol 400
HepG2 cells [10] = assay: Assay for cytotoxicity in human hepatocytes (Neutral red); conditions: overnight incubation, absorbance at 540 nm, triplicate, compound concentration not given
[11] = RPMI 1640, growth read after 48 hours
[12] = RPMI 1640, growth read after 24 hours

Structure (SMILES): C[C@@H](n1nc(Cl)c2ccccc21)[C@](O)(Cn1cncn1)c1ccc(F)cc1F [Example 52]
- Cytotoxicity (percentages of optical density relative to that of the control) (HepG2 cells [1]): 5.6%

Structure (SMILES): Cc1c2c(Cl)cccc2nn1[C@H](C)[C@](O)(Cn1cncn1)c1ccc(F)cc1F [Example 68]
- Cytotoxicity (percentages of optical density relative to that of the control) (HepG2 cells [1]): 2.4%

Structure (SMILES): C[C@@H](N1Cc2cc(NCc3ccc(Cl)cc3)ccc2N1)[C@](O)(Cn1cncn1)c1ccc(F)cc1F [Example 245, (2R,3R)-3-(5-(4-chlorobenzylamino)-1H-indazol-2-yl)-2-(2,4-difluorophenyl)-1-(1H-1,2,4-triazol-1-yl)butan-2-ol]
- MIC90 [2]: 0.5 µg/mL (≈ 0.979 µM)
- MIC90 [3]: 0.5 µg/mL (≈ 0.979 µM)
- MIC90 [4]: 2 µg/mL (≈ 3.91 µM)
- MIC90 [5]: 0.5 µg/mL (≈ 0.979 µM)
- MIC90 [6]: ≤ 0.015 µg/mL
- MIC90 [7]: 4 µg/mL (≈ 7.83 µM)
- MIC90 (Candida krusei ATCC 6258): 0.5 µg/mL (≈ 0.979 µM)
- MIC90 [8]: 0.125 µg/mL (≈ 0.245 µM)
- % Survival on Day 21 [9]: 40%
- acute toxicity: toxic syndromes observed (Assay for acute toxicity): no toxic syndromes
- Cytotoxicity (percentages of optical density relative to that of the control) (HepG2 cells [10]): 9.9%

Structure (SMILES): Cc1nn([C@H](C)[C@](O)(Cn2cncn2)c2ccc(F)cc2F)c2cccc(Cl)c12 [Example 69]
- Cytotoxicity (percentages of optical density relative to that of the control) (HepG2 cells [1]): 1.6%

Structure (SMILES): C[C@@H](n1ncc2cc(NCc3cccc(Cl)c3)ccc21)[C@](O)(Cn1cncn1)c1ccc(F)cc1F [Example 240]
- Cytotoxicity (percentages of optical density relative to that of the control) (HepG2 cells [1]): 5.2%

Structure (SMILES): C[C@@H](n1ncc2cc(N(C)C)ccc21)[C@](O)(Cn1cncn1)c1ccc(F)cc1F [Example 310]
- MIC90 (concentration at which 90% of the fungi were inhibited compared to the negative control) [2]: 1 µg/mL
- MIC90 (concentration at which 90% of the fungi were inhibited compared to the negative control) [3]: 2 µg/mL
- MIC90 (concentration at which 90% of the fungi were inhibited compared to the negative control) [4, 11]: 2 µg/mL
- MIC90 (concentration at which 90% of the fungi were inhibited compared to the negative control) [5, 11]: 2 µg/mL
- MIC90 (concentration at which 90% of the fungi were inhibited compared to the negative control) [6, 12]: 0.063 µg/mL
- MIC90 (concentration at which 90% of the fungi were inhibited compared to the negative control) [7, 12]: 8 µg/mL
- MIC90 (concentration at which 90% of the fungi were inhibited compared to the negative control) (Candida krusei ATCC 6258; [12]): 1 µg/mL
- MIC90 (concentration at which 90% of the fungi were inhibited compared to the negative control) ([8]; RPMI 1640, duplicate): 0.5 µg/mL
- % Survival on Day 21 [9]: 40%
- acute toxicity: toxic syndromes observed (Assay for acute toxicity): no toxic syndromes

Structure (SMILES): C[C@@H](N1NCc2ccccc21)[C@](O)(Cn1cncn1)c1ccc(F)cc1F [Example 50, (2R,3R)-2-(2,4-Difluorophenyl)-3-(2H-indazol-1-yl)-1-(1H-1,2,4-triazol-1-yl)butan-2-ol]
- MIC90 [2]: 2 µg/mL (≈ 5.39 µM)
- MIC90 [3]: 4 µg/mL (≈ 10.8 µM)
- MIC90 [4]: 8 µg/mL (≈ 21.5 µM)
- MIC90 [5]: 4 µg/mL (≈ 10.8 µM)
- MIC90 [6]: ≤ 0.015 µg/mL
- MIC90 [7]: 2 µg/mL (≈ 5.39 µM)
- MIC90 (Candida krusei ATCC 6258): 0.5 µg/mL (≈ 1.35 µM)
- MIC90 [8]: 0.063 µg/mL (≈ 0.17 µM)
- time after the fungal infection at which all mice of the group were dead ([9]; 20 mg/kg orally once a day for seven days): 18 days
- % Survival on Day 21 [9]: 0%
- acute toxicity: toxic syndromes observed (Assay for acute toxicity): no toxic syndromes
- Cytotoxicity (percentages of optical density relative to that of the control) (HepG2 cells [10]): 5.2%
